PMC8421423, “Cellular model system to dissect the isoform-selectivity of Akt inhibitors” (Nature Communications, 2021)
Values joined by “and” are separate entries in the source; they are usually repeats but may differ in a detail not shown here. Identical values can stand only once. Like-named read-outs stand apart in the source and are kept apart here.

Key:
[1] = target: T1, Akt1 (Homo sapiens, UniProt P31749); assay: Cellular thermal shift assay (CETSA) in PANC1 cells; type: cell-based; design: purchased ProQinase #1379-0000-2
T1 sequence (P31749 whole entry): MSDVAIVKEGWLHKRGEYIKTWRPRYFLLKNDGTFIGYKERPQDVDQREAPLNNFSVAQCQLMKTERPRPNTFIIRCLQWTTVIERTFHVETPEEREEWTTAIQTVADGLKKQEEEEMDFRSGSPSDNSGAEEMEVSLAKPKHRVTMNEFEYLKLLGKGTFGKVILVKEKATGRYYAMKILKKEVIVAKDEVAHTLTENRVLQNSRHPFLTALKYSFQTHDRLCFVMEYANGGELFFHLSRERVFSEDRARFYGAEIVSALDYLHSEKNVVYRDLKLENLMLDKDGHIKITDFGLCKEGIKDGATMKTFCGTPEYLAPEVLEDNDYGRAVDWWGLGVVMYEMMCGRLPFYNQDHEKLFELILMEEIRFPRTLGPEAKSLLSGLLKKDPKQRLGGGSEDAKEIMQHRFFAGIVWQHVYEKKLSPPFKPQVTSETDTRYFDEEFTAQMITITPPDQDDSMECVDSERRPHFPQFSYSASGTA

[2] = system: Ba/F3^myr-Akt3 cells; assay: CellTiter-Glo cell viability assay; conditions: for cell viability: CTG
[3] = target: Akt3 (Homo sapiens, UniProt Q9Y243); assay: Cellular thermal shift assay (CETSA) in PANC1 cells; type: cell-based; design: purchased ProQinase #1578-0000-1
Sequence of Akt3 (Q9Y243 whole entry): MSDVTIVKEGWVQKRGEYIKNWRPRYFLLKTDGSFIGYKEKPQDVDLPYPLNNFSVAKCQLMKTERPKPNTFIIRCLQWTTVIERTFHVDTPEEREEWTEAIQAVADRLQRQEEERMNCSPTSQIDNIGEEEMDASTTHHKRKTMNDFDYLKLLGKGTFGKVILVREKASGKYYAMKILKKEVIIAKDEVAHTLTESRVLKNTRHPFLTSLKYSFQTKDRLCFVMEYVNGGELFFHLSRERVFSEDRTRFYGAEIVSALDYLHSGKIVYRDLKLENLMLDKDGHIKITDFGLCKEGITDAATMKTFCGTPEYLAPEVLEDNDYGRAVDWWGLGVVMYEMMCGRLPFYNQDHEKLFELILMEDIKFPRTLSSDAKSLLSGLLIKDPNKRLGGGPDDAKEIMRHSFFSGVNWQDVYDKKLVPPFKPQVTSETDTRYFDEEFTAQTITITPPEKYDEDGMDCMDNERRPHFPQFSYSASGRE

[4] = target: T1, Akt1; assay: STK HTRF KinEASE activity-based assay (IC50)
[5] = CETSA PANC1, 1 µM, temperature 43.5
[6] = CETSA PANC1, 1 µM, temperature 48.4
[7] = CETSA PANC1, 1 µM, temperature 53.8
[8] = CETSA PANC1, 1 µM, temperature 58.1
[9] = CETSA PANC1, 1 µM, temperature 61.4
[10] = CETSA PANC1, 1 µM, temperature 65.6
[11] = CETSA PANC1, 1 µM, temperature 70.9
[12] = CETSA PANC1, 1 µM, temperature 76
[13] = CETSA PANC1, 1 µM, temperature 79.9
[14] = CETSA PANC1, 2.5 µM, temperature 39.9
[15] = CETSA PANC1, 2.5 µM, temperature 43.5
[16] = CETSA PANC1, 2.5 µM, temperature 48.4
[17] = CETSA PANC1, 2.5 µM, temperature 53.8
[18] = CETSA PANC1, 2.5 µM, temperature 58.1
[19] = CETSA PANC1, 2.5 µM, temperature 61.4
[20] = CETSA PANC1, 2.5 µM, temperature 65.6
[21] = CETSA PANC1, 2.5 µM, temperature 70.9
[22] = CETSA PANC1, 2.5 µM, temperature 76
[23] = CETSA PANC1, 2.5 µM, temperature 79.9

tAkt1 % [1, 5]: 45.86%
tAkt1 % [1, 6]: 43.98%
tAkt1 % [1, 7]: 34.21%
tAkt1 % [1, 8]: 23.05%
tAkt1 % [1, 9]: 19.70%
tAkt1 % [1, 10]: 13.05%
tAkt1 % [1, 11]: 3.12%
tAkt1 % [1, 12]: 1.54%
tAkt1 % [1, 13]: 0.00%
tAkt1 % [1, 14]: 100.00%
tAkt1 % [1, 15]: 55.35%
tAkt1 % [1, 16]: 36.29%
tAkt1 % [1, 17]: 40.13%
tAkt1 % [1, 18]: 29.31%
tAkt1 % [1, 19]: 31.38%
tAkt1 % [1, 20]: 3.90%
tAkt1 % [1, 21]: -1.89%
tAkt1 % [1, 22]: 0.94%
tAkt1 % [1, 23]: 0.00%
EC50 ([2]; Mus musculus, read-out: CTG BaF3myr-Akt3, Mean, mean of replicates): 5050 nM
EC50 ([2]; Mus musculus, read-out: CTG BaF3myr-Akt3, individual determinations, single replicates): 5100 nM
EC50 ([2]; read-out: CTG BaF3myr-Akt3, individual determinations, single replicates): 4070 nM and 5520 nM
tAkt3 % ([3]; CETSA PANC1, 1 µM, temperature 39.9): 100.00%
tAkt3 % [3, 5]: 71.95%
tAkt3 % [3, 6]: 46.73%
tAkt3 % [3, 7]: 49.56%
tAkt3 % [3, 8]: 48.14%
tAkt3 % [3, 9]: 35.11%
tAkt3 % [3, 10]: 25.19%
tAkt3 % [3, 11]: 2.44%
tAkt3 % [3, 12]: 2.83%
tAkt3 % [3, 13]: 0.00%
tAkt3 % [3, 14]: 100.00%
tAkt3 % [3, 15]: 103.86%
tAkt3 % [3, 16]: 83.57%
tAkt3 % [3, 17]: 72.46%
tAkt3 % [3, 18]: 73.91%
tAkt3 % [3, 19]: 50.24%
tAkt3 % [3, 20]: 22.85%
tAkt3 % [3, 21]: 8.02%
tAkt3 % [3, 22]: 2.05%
tAkt3 % [3, 23]: 0.00%
thermal stabilization of Akt3 (CETSA, in words) ([3]; PANC1, 1 µM): slight stabilization of Akt3
IC50 ([4]; HTRF IC50 Akt1, Mean, mean of replicates): 1630 nM
IC50 ([4]; HTRF IC50 Akt1, individual determinations, single replicates): 1630 nM and 1810 nM and 1450 nM
IC50 ([4]; IC50 Akt1, HTRF, ATP at KM, 1 h preincubation): 1630 ± 148 nM
Log ratio IC50 [Akt] / IC50 [Akt], Akt1 / Akt2 ([4]; biochemical activity based assay, log units): 0.97
Structure (SMILES): C=CC(=O)Nc1ccc2[nH]c(=O)n(C3CCN(Cc4ccc(-c5ncc(Cc6ccc(N)nc6)cc5-c5ccccc5)cc4)CC3)c2c1 [compound 20]
cell viability ([2]; myr-Akt3, 0.1 nM, single replicates, 0.0001 µM): 100.1 % of control and 113.6 % of control and 88.4 % of control
cell viability ([2]; myr-Akt3, 5000 nM, single replicates, 5 µM): 49.5 % of control and 56.5 % of control and 73.0 % of control
Log ratio EC50 [Akt] / EC50 [Akt], Akt3 / Akt2 ([2]; cell viability assay Ba/F3 myr-Akt cells, log units): -0.09
thermal stabilization of Akt3 (CETSA, in words) ([3]; PANC1, 2.5 µM): significant stabilization of Akt2 and Akt3
